According to paper PMC11304236, “A Novel Drug Candidate for Sepsis Targeting Heparanase by Inhibiting Cytokine Storm” (Advanced Science, 2024):

Key:
[1] = test system: HUVECs; assay: Cell surface glycocalyx of TNF-α-stimulated HUVECs (WGA-FITC, atomic force microscopy); format: cell-based, human
Procedure: Lungs were harvested from LPS‐induced and CLP‐induced sepsis model mice, and frozen sections were prepared. HUVECs and RAW264.7 macrophages were incubated with CV122 for 3 h, and TNF‐α (20 ng mL^−1) and LPS (5 µg mL^−1) were used to stimulate cells for 1 h. Lung tissue, HUVECs, and RAW264.7 macrophages were fixed with 4% paraformaldehyde for 10 min before permeabilization with 0.5% Triton X‐100 for 10 min. The membrane was sealed with 4% skimmed milk powder and incubated at room temperature for 50 min. Primary antibodies were rabbit anti‐heparanase polyclonal antibodies overnight at 4 °C. The diluent of the secondary antibody FITC‐WGA‐lectin was kept at room temperature and protected from light for 1 h. Nuclei were stained with DAPI. After 120 s, images were acquired with a confocal microscope (LSM 800, Zeiss, Germany).
HUVECs and RAW264.7 cells in the logarithmic growth phase were digested, centrifuged, and then plated in a six‐well plate at a density of 1 × 10[5] cells per well. CV122 was incubated for 3 h, and cells were stimulated with LPS (5 µg mL^−1) and TNF‐α (20 ng mL^−1) for 5 h. Cell‐covered slides were carefully removed and placed on the stage of the atomic force microscope with needle parameters: elastic coefficient 0.4 N M^−1, sensitivity 65.63 nm V^−1, with otherwise the usual atomic force microscope (Bruker, Billerica, MA) parameters used.

[2] = target: T1, HPA (Homo sapiens, UniProt Q9Y251); assay: Homogeneous time-resolved fluorescence (HTRF) HPA inhibition in vitro; format: biochemical
T1 sequence (Q9Y251 158-543 limits assumed): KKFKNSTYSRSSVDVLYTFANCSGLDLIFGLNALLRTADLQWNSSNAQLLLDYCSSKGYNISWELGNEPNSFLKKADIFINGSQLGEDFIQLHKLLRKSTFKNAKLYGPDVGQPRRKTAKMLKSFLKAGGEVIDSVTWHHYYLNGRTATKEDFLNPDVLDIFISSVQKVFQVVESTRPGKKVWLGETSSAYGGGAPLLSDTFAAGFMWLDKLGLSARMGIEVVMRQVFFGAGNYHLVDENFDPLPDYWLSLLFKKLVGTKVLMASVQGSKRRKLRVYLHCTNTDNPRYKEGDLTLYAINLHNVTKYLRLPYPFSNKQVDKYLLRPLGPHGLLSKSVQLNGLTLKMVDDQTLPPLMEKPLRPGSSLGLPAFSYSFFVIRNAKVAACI
T1 sequence (Q9Y251 36-109 limits assumed): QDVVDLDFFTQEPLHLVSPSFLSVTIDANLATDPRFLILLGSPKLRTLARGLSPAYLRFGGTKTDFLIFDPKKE
Procedure: Active HPA was diluted with Buffer A to 120 ng mL^−1, biot‐HS‐K was diluted with Buffer B (pH 5.5) to 1.4 ng mL^−1, and SA‐d2 was diluted with Buffer C (pH 7.5) to 1 µg mL^−1, CV122 samples were diluted with Buffer A to different concentration gradients. Add 4 µL of sample solution and 3 µL of HPA solution or Buffer A to the micro‐96‐well plate. After incubating at 37 °C for 10 min, the enzyme reaction was started by adding 3 µL of biot‐HS‐K and incubating at 37 °C for 30 min. Then add 10 µL of SA‐d2 solution or Buffer C. After incubating for 15 min at room temperature, the HTRF signal was detected by a microplate reader, which was excited at 384 nm and emitted at 620 nm and 665 nm. The fluorescence intensity ratio of 665 nm/620 nm was used to calculate the average energy transfer rate (ΔF%) of each sample. The positive control system composed of biot‐HS‐K and SA‐d2 should produce the largest ΔF%, while the background fluorescence intensity of the negative control (biot‐HS‐K) should produce the smallest ΔF%.^[ [45] ^]

SMILES: COC1OC(COS(=O)(=O)O)C(OC2OC(C(=O)O)C(OC3OC(COS(=O)(=O)O)C(OC4OC(C(=O)O)C(OC5OC(COS(=O)(=O)O)C(O)C(O)C5NS(=O)(=O)O)C(OS(=O)(=O)O)C4O)C(OS(=O)(=O)O)C3NS(=O)(=O)O)C(O)C2OS(=O)(=O)O)C(O)C1NS(=O)(=O)O (stereo not shown) [CV122]
- glycocalyx integrity by WGA-FITC fluorescence [1]: rescued glycocalyx integrity
- glycocalyx structure / surface roughness by atomic force microscopy [1]: reduced glycocalyx damage and resulted in a smoother surface
- IC50 rank in HPA inhibition screening ([2]; CV114-CV123 compared with fondaparinux, ****p < 0.0001): lowest IC50 values
- IC50 ([2]; HTRF, in vitro): 2970 nM
